System: 994946-033-R-J1-PDC complex spheroid viability
Test: Anticancer human tumor 994946-033-R-J1-PDC patient-derived melanoma cell line growth inhibition [POLQ]
Conditions: for IC50: curve of first compound; for viability, T/C: stronger effect = lower value
Method: Multicellular complex tumor spheroid response to Polymerase (POL) inhibitors (novobiocin, ART-558, RP6685) in combination with a variety of drugs and investigational agents in selected tumor cell lines
The POL inhibitors (novobiocin, ART-558, and RP6685) were evaluated both individually and in combination with standard of care and investigational anticancer small molecules within a complex spheroid model of solid tumors. . Complex spheroids include a stromal component modeled by human endothelial cells (HUVEC) and fibroblasts modeled by human mesenchymal stem cells (MSCs). The concentration ranges selected for each drug and investigational agent were based upon clinically achievable concentrations if the clinical Cmax of the agent was known.
Compounds. The drugs and investigational agents: novobiocin (NSC847541), ART-558 (NSC835418), RP-6685 (NSC848927), peposertib (NSC802822), ceralasertib (NSC780249), elimusertib (NSC800525), camonsertib (NSC841442), AZD-1390 (NSC803789), olaparib (NSC753686), talazoparib (NSC767125), rucaparib (NSC756644), sotorasib (NSC818433), MRTX-1133 (NSC836407), SN-38 (NSC673596), topotecan (NSC609699), epotoside (NSC141540), doxorubicin (NSC123127), gemcitabine (NSC613327), 5-fluorouracil (NSC19893), paclitaxel (NSC125973), vemurafenib (NSC761431), MSA-2 (NSC828583), SN-011 (NSC837082), adavosertib (NSC754352), prexasertib (NSC758257), carboplatin (NSC241240) and oxaliplatin (NSC266046), were obtained from the National Cancer Institute (NCI) Developmental Therapeutics Program Chemical Repository (21). The FDA-approved anticancer drug set is available from the Developmental Therapeutics Program at https://dtp.cancer.gov/organization/dscb/obtaining/. […] The stock solutions were prepared in dimethyl sulfoxide (DMSO, Sigma-Aldrich, St. Louis, MO, cat. D2650), except for the platinum compounds which were prepared in saline (Quality Biological, Gaithersburg, MD, cat. 114-055-101), at 800-fold the tested concentration and stored at -70 degrees C prior to their use. All drugs and investigational agents were tested over a range starting from a high concentration at or near the clinical Cmax and decreasing in half-log increments. If the clinical Cmax for an agent had not been determined, the highest concentration tested was 10 microM, except for SN-38, which was tested at a high concentration of 1 microM.
Cell Culture. All cells were maintained in an incubator at 37 degrees C and 5% CO2 with 95% humidity. The PDC lines were cultured according to standard operating procedures established by the NCI PDMR (https://pdmr.cancer.gov). Table 3 of the manuscript, lists the cell lines along with the number of the three cell types plated to form the mct-spheroids and media for tumor cell growth. After thawing, all PDC lines, except 997537-175-T-J1-PDC and 415267-285-R-J2-PDC, were cultured in Matrigel-coated flasks prepared with a working solution of 1X Ham's F-12 nutrient mix, without supplementation (Thermo Fisher Scientific, cat. 11765054), 100 U/mL penicillin-streptomycin (Thermo Fisher Scientific, cat. 15140122), and 2.5% Matrigel (Corning Inc., Corning, NY, cat. 354248) for the first three passages. The two PDC lines 997537-175-T-J1-PDC and 415267-285-R-J2-PDC were cultured on uncoated flasks. The 857933-349-R-J2-PDC line was cultured in 6C/Colon 1B media containing advanced DMEM/F-12 (Thermo Fisher Scientific, cat. 12634028), 10 mM HEPES (Thermo Fisher Scientific, cat. 15630080), 1X GlutaMAX supplement (Thermo Fisher Scientific, cat. 35050061), 0.1 mg/mL primocin (InvivoGen, San Diego, CA, cat. ant-pm-2), 10% defined fetal bovine serum, heat inactivated (HyClone Laboratories Inc., Logan, UT, cat. SH30070.03HI), 50% L-WRN conditioned media (ATCC, cat. CRL-3276), 1.25 mM N-Acetyl-L-cysteine (Sigma-Aldrich, cat. A9165), 10 mM nicotinamide (Sigma-Aldrich, cat. N0636), 1X B-27 supplement (Thermo Fisher Scientific, cat. 17504044), 1X N-2 supplement (Thermo Fisher Scientific, cat. […]
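Also: spheroids exposed to drugs for 7 days.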
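For viability, T/C in this document: 100% = DMSO vehicle treated spheroids.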

## CC(C)n1c(=O)n(C)c2cnc3cc(F)c(-c4ccc(OCCCN5CCCCC5)nc4)cc3c21 + Nc1ccc(C#CCN(C(=O)Cc2ncc(C(F)(F)F)cc2C(F)(F)F)c2ccc(F)cc2)nn1
Second compound 0.0316 µM
  IC50: > 10 µM
Second compound 0.1 µM
  IC50: > 10 µM
Second compound 0.316 µM
  IC50: > 10 µM
Second compound 1 µM
  IC50: 8.97 µM
Second compound 3.16 µM
  IC50: 8.25 µM
Second compound 10 µM
  IC50: > 10 µM
Second compound 0.0316 µM, first compound 0.0316 µM
  viability, T/C: 82.2%
Second compound 0.0316 µM, first compound 0.1 µM
  viability, T/C: 103%
Second compound 0.0316 µM, first compound 0.316 µM
  viability, T/C: 80.6%
Second compound 0.0316 µM, first compound 1 µM
  viability, T/C: 98.5%
Second compound 0.0316 µM, first compound 3.16 µM
  viability, T/C: 83.5%
Second compound 0.0316 µM, first compound 10 µM
  viability, T/C: 66.4%
Second compound 0.1 µM, first compound 0.0316 µM
  viability, T/C: 113%
Second compound 0.1 µM, first compound 0.1 µM
  viability, T/C: 95.3%
Second compound 0.1 µM, first compound 0.316 µM
  viability, T/C: 52.7%
Second compound 0.1 µM, first compound 1 µM
  viability, T/C: 84.7%
Second compound 0.1 µM, first compound 3.16 µM
  viability, T/C: 77.5%
Second compound 0.1 µM, first compound 10 µM
  viability, T/C: 67.5%
Second compound 0.316 µM, first compound 0.0316 µM
  viability, T/C: 88.9%
Second compound 0.316 µM, first compound 0.1 µM
  viability, T/C: 80.9%
Second compound 0.316 µM, first compound 0.316 µM
  viability, T/C: 94.7%
Second compound 0.316 µM, first compound 1 µM
  viability, T/C: 101%
Second compound 0.316 µM, first compound 3.16 µM
  viability, T/C: 68.9%
Second compound 0.316 µM, first compound 10 µM
  viability, T/C: 59.6%
Second compound 1 µM, first compound 0.0316 µM
  viability, T/C: 76.5%
Second compound 1 µM, first compound 0.1 µM
  viability, T/C: 103%
Second compound 1 µM, first compound 0.316 µM
  viability, T/C: 98%
Second compound 1 µM, first compound 1 µM
  viability, T/C: 88.8%
Second compound 1 µM, first compound 3.16 µM
  viability, T/C: 93.6%
Second compound 1 µM, first compound 10 µM
  viability, T/C: 45.6%
Second compound 3.16 µM, first compound 0.0316 µM
  viability, T/C: 96.6%
Second compound 3.16 µM, first compound 0.1 µM
  viability, T/C: 97.7%
Second compound 3.16 µM, first compound 0.316 µM
  viability, T/C: 97.6%
Second compound 3.16 µM, first compound 1 µM
  viability, T/C: 115%
Second compound 3.16 µM, first compound 3.16 µM
  viability, T/C: 85%
Second compound 3.16 µM, first compound 10 µM
  viability, T/C: 43%
Second compound 10 µM, first compound 0.0316 µM
  viability, T/C: 103%
Second compound 10 µM, first compound 0.1 µM
  viability, T/C: 67.7%
Second compound 10 µM, first compound 0.316 µM
  viability, T/C: 74.4%
Second compound 10 µM, first compound 1 µM
  viability, T/C: 82%
Second compound 10 µM, first compound 3.16 µM
  viability, T/C: 87.9%
Second compound 10 µM, first compound 10 µM
  viability, T/C: 70.8%

From PubChem BioAssay AID1963827 (Molecular Pharmacology Branch, DTP, NCI, 2024)
